Experimental data as given in patent publication US20100152275A1, “Drug or Supplement Combination with Conjugated Linoleic Acid for Fat Loss in Mammals” (Kaloness, Inc., priority 2008, published 2010).
Like-named read-outs stand apart in the source and are kept apart here.

Key:
[1] = tested on: 3T3-L1 adipocytes; test: Triglyceride levels (delipidation) in 3T3-L1 adipocytes; assay type: cell-based, Mouse; settings: for TG levels: differentiated 3T3-L1 adipocytes, alone or combined with t10c12 CLA; for reduced triglyceride levels by, relative to the linoleic acid control: Example 15, CLA 50 uM
Description: Two well known AMPK activators with very different chemical structures are metformin and AICAR. Metformin is from the class of biguanides while AICAR is a ribonucleoside analog that is phosphorylated in the cell to form ZMP, an AMP mimetic. […] A lower 50 μM level of t10c12 CLA was used in the experiment to better measure any effects of the combinations.
We recognize the complex medical effects and dangers of ATRA, retinoids, or rexinoids, has limited their therapeutic use in humans.
We tested the role of PPARβ/δ with the use of GW0742, a PPARβ/δ agonist.
Activating ligands include hydroxysterols such as 24(S)-Hydroxycholesterol or 24(S),25-epoxycholesterol.
We treated 3T3-L1 adipocytes with control or CLA fatty acids, with or without a statin drug.

[2] = tested on: AMPK; test: AMPK phosphorylation in 3T3-L1 adipocytes, western blot; assay type: cell-based, Mouse; settings: for Phospho-AMPK Amount: 3T3-L1 adipocytes, LA = 1
Description: (§3) The level of phosphorylated AMPK and acetyl CoA carboxylase (ACC), one of AMPK's known in vivo substrates, was measured at various times after treating 3T3-L1 adipocytes with either 100 uM linoleic acid or trans-10, cis-12 CLA (t10c12 CLA). […] The total amounts of AMPK and ACC were also determined with antibodies that recognize the respective proteins regardless of phosphorylation status.
(§4) The phosphorylation levels of AMPK and ACC were then determined after treating 3T3-L1 adipocytes with either metformin, AICAR, or t10c12 CLA alone or in combination.

[3] = tested on: adipocytes; test: Inflammatory response to phenformin in adipocytes; assay type: cell-based; settings: compared with metformin
[4] = reference [18]; cited from earlier work
[5] = tested on: MCP-1 mRNA; test: MCP-1 mRNA by real time PCR in 3T3-L1 adipocytes; assay type: cell-based, Mouse; settings: 12 hrs
Description: CLA has been reported to cause inflammation which is considered a non-healthy condition. […] Metformin or AICAR was used in combination with t10c12 CLA in the media containing the adipocytes for 12 hrs. RNA was isolated and the inflammatory response, as measured by MCP-1 (an inflammatory cytokine) mRNA levels, was determined by real time PCR of the reverse transcribed RNA.

[6] = tested on: acetyl CoA carboxylase (ACC); settings: for Phospho-ACC amount: 3T3-L1 adipocytes, LA = 1
Description: as §3, §4

[7] = 14 d feeding trial of t10c12 CLA and metformin in ML mice; assay type: in vivo; settings: for fat pad weights relative to control untreated mice: 0.25% CLA, either dose of metformin; for final weight of the epididymal (EPI) / final weight of the retroperitoneal (RP) / change in body weight (BW): mean ± SEM
Description: (§1) FIG. 1. […] Forty-two MC and 42 mL mice were fed diets containing soy oil or soy oil with 0.25% t10c12 CLA and drinking water containing either none, 0.33 mg/ml, or 3.33 mg/ml metformin (Met) for 14 days (n=6 mice per treatment). A positive control diet contained the standard amount of 0.5% t10c12 CLA without any metformin. Body weights were recorded and retroperitoneal (RP) and epididymal fat pads from all the mice were isolated and weighed.

[8] = 14 d feeding trial of t10c12 CLA and metformin in MC mice; assay type: in vivo; settings: mean ± SEM
Description: as §1

[9] = tested on: 3T3-L1 adipocytes; test: Microarray gene expression changes in 3T3-L1 adipocytes; assay type: cell-based, Mouse; settings: compared with t10c12 CLA, data not shown
[10] = tested on: liver tissues; test: Microarray analysis of liver tissues of mice treated with t10c12 CLA; assay type: in vivo
Description: (§2) We have microarray analyses of 3T3-L1 fibroblasts prior to differentiation and from liver tissues in mice treated with t10c12 CLA that support the hypothesis that t10c12 CLA is selective in the types of cells responding. The ISR is a cell response that most cells are capable of inducing and is a key part of the response to t10c12 CLA [5, 19].

[11] = tested on: 3T3-L1 fibroblasts; test: Integrated stress response (ISR) in 3T3-L1 fibroblasts, microarray; assay type: cell-based, Mouse; settings: 3T3-L1 fibroblasts prior to differentiation
Description: as §2

[12] = tested on: WAT of mice; test: Microarray analysis of WAT of mice fed t10c12 CLA; assay type: in vivo
Description: Recent microarray analyses of the WAT of mice fed t10c12 CLA by our laboratory and others found three major trends. […] This initial inflammatory response is transient: the expression levels of many of these genes returns to normal levels following the first week of treatment, and the remaining genes are expressed at lower levels than the initial response. […] In particular, carnitine palmitoyltransferase I (CPT1), uncoupling protein 1 (UCP1), and uncoupling protein 2 (UCP2) show increases. The response in UCP1 and UCP2 genes is quite strong, as the levels of the induced mRNAs are in the 95th and 90th percentiles of the most abundant mRNAs in the adipocyte, respectively. UCP1 is usually exclusively expressed in brown adipose tissue, so this is a remarkable change in expression pattern with likely physiological effects. There is not a consensus that increased metabolic heat output occurs in t10c12 CLA treatments, but this increased metabolism has been observed in some studies.

[13] = 100 uM, from 30 min, persisted 16 hr, vs linoleic acid

## Cc1cc(SCc2sc(-c3ccc(C(F)(F)F)c(F)c3)nc2C)ccc1OCC(=O)O [GW0742]
[1]
  TG levels: little effect on TG levels

## [H]/N=C(/N)N/C(=N/[H])NCCc1ccccc1 [Phenformin]
[2]; compared with metformin
  p-AMPK levels: higher p-AMPK levels
[3]
  inflammatory response: stronger than that observed with metformin
[4]
  lactic acidosis: can cause toxic lactic acidosis
[1]; Example 9
  delipidation: sufficient for the type of strong delipidation observed with t10c12 CLA treatments

## C[C@H](CC[C@@H]1OC1(C)C)[C@H]1CC[C@H]2[C@@H]3CC=C4C[C@@H](O)CC[C@]4(C)[C@H]3CC[C@]12C [24(S),25-epoxycholesterol]
[1]
  TG levels: did not reduce TG levels

## CC[C@H](C)C(=O)O[C@H]1CCC=C2C=C[C@H](C)[C@H](CC[C@@H]3C[C@@H](O)CC(=O)O3)[C@H]21 [mevastatin, Mevastatin]
[1]
  reduced triglyceride levels by, relative to the linoleic acid control: 10%

## NC(=O)c1ncn([C@@H]2O[C@H](CO)[C@@H](O)[C@H]2O)c1N [AICAR, aminoimidazole carboxamide ribonucleotide, reference compound]
[5]
  MCP-1 induction relative to the LA control: neither metformin nor AICAR alone produced a significant induction

## c1cc(-c2cnn3cc(-c4ccc(OCCN5CCCCC5)cc4)cnc23)ccn1 [compound C, reference compound]
[6]; Example 2, western blot
  phosphorylation of Acetyl-Coenzyme A Carboxylase (ACC): inhibited
[2]; Example 2, western blot
  phosphorylation of AMPK: inhibited

## CC1=C(/C=C/C(C)=C/C=C/C(C)=C/CO)C(C)(C)CCC1 [vitamin A, retinol]
[1]
  TG levels: little impact

## CN(C)C(=N)N=C(N)N [Metformin]
[7]
  fat pad weights relative to control untreated mice: increased fat pad weights
[7]; Met2 (2 mmol/L), 14 d
  final weight of the epididymal (EPI): 1.06 ± 0.13 g
  final weight of the retroperitoneal (RP): 0.37 ± 0.1 g
[7]; Met2 (metformin 2 mmol/L drinking water), 14 d
  change in body weight (BW): 2.89 ± 1 g
[7]; Met20 (20 mmol/L), 14 d
  final weight of the epididymal (EPI): 1.08 ± 0.12 g
  final weight of the retroperitoneal (RP): 0.33 ± 0.06 g
[7]; Met20 (metformin 20 mmol/L drinking water), 14 d
  change in body weight (BW): 2.54 ± 0.51 g
[8]; Met2 (2 mmol/L), 14 d
  change in body weight (BW): 1.96 ± 0.9 g
  final weight of the epididymal (EPI): 0.59 ± 0.07 g
  final weight of the retroperitoneal (RP): 0.23 ± 0.04 g
[8]; Met20 (20 mmol/L), 14 d
  change in body weight (BW): 2.82 ± 0.96 g
  final weight of the epididymal (EPI): 0.48 ± 0.09 g
  final weight of the retroperitoneal (RP): 0.23 ± 0.06 g
[9]
  induction of inflammatory genes (CD14, Clcf1, Cox2, Csf1, MCP-1, Osmr, PAI, SOCS3): lower levels of induction
[5]
  MCP-1 induction relative to the LA control: neither metformin nor AICAR alone produced a significant induction

## CC(C)[C@@H](O)CC[C@@H](C)[C@H]1CC[C@H]2[C@@H]3CC=C4C[C@@H](O)CC[C@]4(C)[C@H]3CC[C@]12C [24(S)-Hydroxycholesterol]
[1]
  TG levels: did not reduce TG levels

## CCCCC/C=C\C=C\CCCCCCCCC(=O)O [CLA, trans-10, cis-12 CLA]
[10]; compared with adipose tissue
  ISR in liver: weak ISR
[10]; mice treated with t10c12 CLA
  delipidation or inflammatory response in liver: lacked a significant delipidation or inflammatory response
[7]
  fat pad weights relative to control untreated mice: no significant change
[7]; Met0 (no metformin), 14 d
  change in body weight (BW): 1.89 ± 0.95 g
[7]; Met0, 14 d
  final weight of the epididymal (EPI): 0.89 ± 0.17 g
  final weight of the retroperitoneal (RP): 0.27 ± 0.08 g
[8]; Met0, 14 d
  change in body weight (BW): 1.42 ± 0.46 g
  final weight of the epididymal (EPI): 0.31 ± 0.07 g
  final weight of the retroperitoneal (RP): 0.1 ± 0.01 g
[6]; 100 uM, 16 hr experiment
  total amount of ACC: remained constant
[6]; [13]
  level of phosphorylated ACC: increased levels
[6]; 2 hr
  Phospho-ACC amount: 4.1
[6]; 8 hr
  Phospho-ACC amount: 3.3
[2]; 100 uM, 16 hr experiment
  total amount of AMPK: remained constant
[2]; [13]
  level of phosphorylated AMPK: increased levels
[2]; 2 hr
  Phospho-AMPK Amount: 6.0
[2]; 8 hr
  Phospho-AMPK Amount: 1.7
[5]
  MCP-1 induction relative to the LA control: 23 fold
[5]; LA = 1
  MCP-1 mRNA levels: 23
[11]
  ISR response: do not show this response
[12]; WAT of mice fed t10c12 CLA
  UCP1 induced mRNA level, percentile of the most abundant mRNAs in the adipocyte: 95 percentile
  UCP2 induced mRNA level, percentile of the most abundant mRNAs in the adipocyte: 90 percentile
  expression of key adipocyte lipid-related genes: reduced expression
  mRNA levels of key fatty acid oxidation genes (CPT1, UCP1, UCP2): increased mRNA levels
[12]; first several days of dietary t10c12 CLA, transient
  inflammatory response (Cox2, cytokines): induce an inflammatory response
[1]; Example 2, CLA alone, vs LA control
  reduction in triglyceride levels: 50%
[1]
  reduced triglyceride levels by, relative to the linoleic acid control: 25%

## CC1=C(/C=C/C(C)=C/C=C/C(C)=C/C(=O)O)C(C)(C)CCC1 [ATRA, All trans retinoic acid]
[1]
  TG levels: increased amounts of TG
